Measurements taken from patent US20080269060A1, “Herbicidal Formulation” (priority 2004, published 2008).
Values after ≈ are worked out from the molar mass of the structure shown. Read-outs that look alike come from different tables or passages of the source.

Columns and labels:
[1] = Storage stability of 1% mesotrione / isoxaflutole salt mixtures, 8 weeks at +45° C. vs −18° C.; assay type: physicochemical; design: Start: unit not given here; settings: for 45° C. / % decomposition: 8 weeks at 45° C.; for Start: held at −18° C. 8 weeks
Description: Millbase preparations of mesotrione and isoxaflutole were made using the following method:
The sample is placed in a round bottomed flask (˜140 mls) and mixed at 150 rpm for 15 minutes until homogeneous. An equal volume of glass beads is added to the flask (0.8-1.0 mm diameter) and the sample is milled at 650 rpm of 60 minutes. The particle size was checked. Further milling of the sample continued (60 minutes for mesotrione and 150 minutes for isoxaflutole). The particle size was checked again and all particles met the specification of 5 microns (D(4,3) volume weighted mean diameter).
The samples were extracted under vacuum through a sieve to disengage the beads from the millbases. The two millbases shown below were checked for AI content and used in the preparation of the salt mixtures. The final mixtures (see below) were then placed on storage at −18° C. (controlled initial sample) and +45° C. for 8 weeks. Analysis was then carried out using validated methods. The salts used were: glyphosate potassium aqueous solution; diquat dibromide aqueous solution; paraquat dichloride aqueous solution.
Analytical Results: storage time was 8 weeks; sample denoted as “start” was held at −18° C. for the same period.

[2] = Amount of mesotrione in solution by UV-visible spectrophotometry in aqueous electrolyte; assay type: physicochemical; settings: pH approximately 5
Description: Eight aqueous millbase formulations were made comprising mesotrione millbase (12 g/L or 10,000 approximately) and varying amounts of glyphosate-potassium, ammonium sulphate, and sodium chloride. All samples were held at a pH of approximately 5 by using phosphoric acid for adjustment. The amount of mesotrione in solution was determined using UV-visible spectrophotometry, since the aqueous solubility of mesotrione is related to the expected rate of decomposition of this active ingredient in such systems.

[3] = water, cited from earlier work
[4] = 1% active and diquat pH ~4, Salt % 7.50 (as diquat anion)
[5] = 1% active and diquat pH ~4, Salt % 15.00 (as diquat anion)
[6] = 1% active and diquat pH ~4, Salt % 22.50 (as diquat anion)
[7] = 1% active and paraquat pH ~4, Salt % 10.00 (as paraquat anion)
[8] = 1% active and paraquat pH ~4, Salt % 20.00 (as paraquat anion)
[9] = 1% active and paraquat pH ~4, Salt % 30.00 (as paraquat anion)
[10] = 1% active, no salt, adjusted pH 2
[11] = 1% isoxaflutole unadjusted pH 7.0, no salt
[12] = 1% active and glyphosate pH ~5, Salt % 15.00 (as glyphosate acid equivalent)
[13] = 1% active and glyphosate pH ~5, Salt % 45.00 (as glyphosate acid equivalent)
[14] = 1% mesotrione not adjusted pH 5 (pH ~4.5), no salt

CS(=O)(=O)c1cc(C(F)(F)F)ccc1C(=O)c1cnoc1C1CC1 [Isoxaflutole, 5-cyclopropyl-4-(2-methylsulfonyl-4-trifluoromethyl)benzoylisoxazole]
45° C. [1, 4]: 0.94 | % decomposition [1, 4]: 11.30% | Start [1, 4]: 1.06 | 45° C. [1, 5]: 0.94 | % decomposition [1, 5]: 9.50% | Start [1, 5]: 1.04 | 45° C. [1, 6]: 0.87 | % decomposition [1, 6]: 16.50% | Start [1, 6]: 1.04 | 45° C. [1, 7]: 0.99 | % decomposition [1, 7]: 6.00% | Start [1, 7]: 1.05 | 45° C. [1, 8]: 0.90 | % decomposition [1, 8]: 12.00% | Start [1, 8]: 1.02 | 45° C. [1, 9]: 0.80 | % decomposition [1, 9]: 7.00% | Start [1, 9]: 0.86 | 45° C. [1, 10]: 1.02 | % decomposition [1, 10]: nil | Start [1, 10]: 0.98 | 45° C. [1, 11]: 0.85 | % decomposition [1, 11]: 17.00% | Start [1, 11]: 1.06

CS(=O)(=O)c1ccc(C(=O)C2C(=O)CCCC2=O)c([N+](=O)[O-])c1 [Mesotrione, 2-(4-methylsulphonyl-2-nitrobenzoyl)cyclohexane-1,3-dione]
Concentration of mesotrione in solution ([2]; Ammonium sulphate solution 100 g per litre): 625 ppm | Concentration of mesotrione in solution ([2]; Ammonium sulphate solution 200 g per litre): 504 ppm | Concentration of mesotrione in solution ([2]; Ammonium sulphate solution 300 g per litre): 391 ppm | Concentration of mesotrione in solution ([2]; Ammonium sulphate solution 400 g per litre): 271 ppm | Concentration of mesotrione in solution ([2]; Ammonium sulphate solution 500 g per litre): 263 ppm | Concentration of mesotrione in solution ([2]; Potassium glyphosate 100 g per litre): 1220 ppm | Concentration of mesotrione in solution ([2]; Potassium glyphosate 200 g per litre): 700 ppm | Concentration of mesotrione in solution ([2]; Potassium glyphosate 300 g per litre): 480 ppm | Concentration of mesotrione in solution ([2]; Potassium glyphosate 360 g per litre): 290 ppm | Concentration of mesotrione in solution ([2]; Potassium glyphosate 400 g per litre): 210 ppm | Concentration of mesotrione in solution ([2]; Potassium glyphosate 500 g per litre): 180 ppm | Concentration of mesotrione in solution ([2]; Potassium glyphosate 600 g per litre): 170 ppm | Concentration of mesotrione in solution ([2]; Potassium glyphosate 640 g per litre): 160 ppm | Concentration of mesotrione in solution ([2]; Sodium Chloride 50 g per litre): 605 ppm | Concentration of mesotrione in solution ([2]; Sodium Chloride 105 g per litre): 549 ppm | Concentration of mesotrione in solution ([2]; Sodium Chloride 165 g per litre): 510 ppm | Concentration of mesotrione in solution ([2]; Sodium Chloride 230 g per litre): 479 ppm | Concentration of mesotrione in solution ([2]; Sodium Chloride 300 g per litre): 443 ppm | Concentration of mesotrione in solution ([2]; electrolyte: None): 4700 ppm | 45° C. [1, 4]: 0.96 | % decomposition [1, 4]: 9.43% | Start [1, 4]: 1.06 | 45° C. [1, 5]: 0.93 | % decomposition [1, 5]: 13.08% | Start [1, 5]: 1.07 | 45° C. [1, 6]: 0.86 | % decomposition [1, 6]: 21.10% | Start [1, 6]: 1.09 | 45° C. [1, 12]: 0.86 | % decomposition [1, 12]: 18.1% | Start [1, 12]: 1.05 | 45° C. [1, 13]: 0.80 | % decomposition [1, 13]: 14.9% | Start [1, 13]: 0.94 | 45° C. [1, 7]: 0.96 | % decomposition [1, 7]: 12.73% | Start [1, 7]: 1.10 | 45° C. [1, 8]: 0.98 | % decomposition [1, 8]: 12.50% | Start [1, 8]: 1.12 | 45° C. [1, 9]: 0.90 | % decomposition [1, 9]: 18.18% | Start [1, 9]: 1.10 | 45° C. [1, 10]: 0.96 | % decomposition [1, 10]: 10.28% | Start [1, 10]: 1.07 | 45° C. [1, 14]: 0.83 | % decomposition [1, 14]: 34.65% | Start [1, 14]: 1.27 | solubility ([3]; pH 4.8, 20° C.): 2.2 mg/mL (≈ 6.48 mM) | solubility ([3]; pH 6.9, 20° C.): 15 mg/mL (≈ 44.2 mM) | solubility ([3]; pH 9, 20° C.): 22 mg/mL (≈ 64.8 mM)
